Assay [1] relates to palmitoylated ER46. Briefly: Native gel electrophoresis / Western blot of palmitoylated ER46 in eukaryotic cell-free expression system. The following applies: 2-bromopalmitate 100 µM. In kind it is biochemical, human.
Assay [2] has as its system palmitoylated ER66. Briefly: Native gel electrophoresis / Western blot of palmitoylated ER66 in eukaryotic cell-free expression system. In kind it is biochemical, human. The conditions noted are these: 2-bromopalmitate 100 µM.
Assay [3] concerns the target ER36. The arrangement: method as in PMID 20197310. The conditions noted are these: previous studies; cited from earlier work.
In assay [4] the target is T1, human ER66 (Homo sapiens, UniProt P03372).
T1 sequence (P03372 1-595): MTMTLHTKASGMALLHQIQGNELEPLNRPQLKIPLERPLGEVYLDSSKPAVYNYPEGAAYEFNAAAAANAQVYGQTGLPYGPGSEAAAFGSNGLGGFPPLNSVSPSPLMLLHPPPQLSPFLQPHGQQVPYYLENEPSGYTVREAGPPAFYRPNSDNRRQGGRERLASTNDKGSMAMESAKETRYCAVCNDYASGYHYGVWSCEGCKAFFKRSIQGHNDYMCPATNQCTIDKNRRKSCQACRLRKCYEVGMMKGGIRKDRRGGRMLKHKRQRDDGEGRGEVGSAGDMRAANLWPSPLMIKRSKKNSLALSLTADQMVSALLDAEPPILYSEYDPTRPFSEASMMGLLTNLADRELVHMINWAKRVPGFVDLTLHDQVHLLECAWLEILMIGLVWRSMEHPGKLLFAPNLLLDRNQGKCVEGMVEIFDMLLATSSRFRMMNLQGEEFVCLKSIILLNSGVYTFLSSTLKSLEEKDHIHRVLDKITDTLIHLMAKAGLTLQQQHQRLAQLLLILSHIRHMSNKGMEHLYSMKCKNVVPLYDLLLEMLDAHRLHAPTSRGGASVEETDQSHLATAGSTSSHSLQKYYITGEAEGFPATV
Kind of assay: Competitive [3H]-17β-estradiol ligand binding assay, ER66.

The target of assay [5] is T2, human ER46 (Homo sapiens, UniProt P03372).
T2 sequence (P03372 1-422 isoform P03372-3): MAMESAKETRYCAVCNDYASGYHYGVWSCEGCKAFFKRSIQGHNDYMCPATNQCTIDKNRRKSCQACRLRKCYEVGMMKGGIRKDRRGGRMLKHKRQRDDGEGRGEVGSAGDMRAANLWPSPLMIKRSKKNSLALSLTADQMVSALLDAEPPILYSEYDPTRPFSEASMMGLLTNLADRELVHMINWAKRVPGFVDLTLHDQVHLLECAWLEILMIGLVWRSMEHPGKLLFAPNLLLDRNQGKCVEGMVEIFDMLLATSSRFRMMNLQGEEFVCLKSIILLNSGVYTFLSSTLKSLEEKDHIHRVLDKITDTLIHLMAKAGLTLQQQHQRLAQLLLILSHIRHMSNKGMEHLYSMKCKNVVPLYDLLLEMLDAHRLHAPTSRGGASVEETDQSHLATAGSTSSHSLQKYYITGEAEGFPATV
Briefly: Competitive [3H]-17β-estradiol ligand binding assay, ER46.

The test system of assay [6] is ERα over ERβ. The following applies: cited from earlier work.
The mark [7] stands for this setting: ratio of IC50 values of 17β-estradiol and compound, 17β-estradiol set at 100.

Read-outs that look alike come from different tables or passages of the source.

Regarding `CCCCCCCCCCCCCCC(Br)C(=O)O` (stereo not drawn) [2-bromopalmitate, 2-bromohexadecanoic acid], the “expression of palmitoylated ER46” value in assay [1] is “abolished”. Besides, in assay [2], the “expression of palmitoylated ER66” value is listed as “abolished”.

For `C[C@]12CC[C@@H]3c4ccc(O)cc4CC[C@H]3[C@@H]1CC[C@@H]2O` [17β-estradiol], the dissociation constant (Kd) in assay [3] was 2.2 nM.

As for `O=c1c(-c2ccc(O)cc2)coc2cc(O)ccc12` [Daidzein, daidzein], the “RBA ER66” value in assay [4] (setting [7]) worked out at 0.003. Moreover, in assay [5] (setting [7]), the “RBA ER46” value is 0.002.

Take `Oc1ccc(-c2c(-c3ccccc3)nn3c(C(F)(F)F)cc(C(F)(F)F)nc23)cc1` [PHTPP, 4-[2-phenyl-5,7-bis(trifluoromethyl)pyrazolo[1,5-a]pyrimidin-3-yl]phenol]: the results for the IC50 in assay [4] and in assay [5] were 1330 nM and 3330 nM, respectively. Moreover, the “RBA ER66” value in assay [4] (setting [7]) is given as 0.003. Besides, in assay [5], the “RBA ER46” value was found to be 0.001.

As for `CCCc1c(-c2ccc(O)cc2)nn(-c2ccc(O)cc2)c1-c1ccc(O)cc1` [PPT, propylpyrazole triol], the “RBA ER66” value in assay [4] (setting [7]) was determined as 42052. Moreover, the “RBA ER46” value in assay [5] (setting [7]) was determined as 23016.

“methyl-piperidino-pyrazole dihydrochloride [MPP]”: in assay [4], the “RBA ER66” value amounted to 0.305. For the same compound, the “selectivity for ERα over ERβ” value in assay [6] is 200 fold. Further, in assay [5], the “RBA ER46” value stood at 0.498 and the “higher affinity for ER46 when compared to ICI 182,780” value is “four-fold”.

The values are drawn from publication PMC3639985, “Differential Ligand Binding Affinities of Human Estrogen Receptor-α Isoforms” (PLoS ONE, 2013).
